Experimental data from publication PMC6882135 (ACS Omega, 2019).

Legend:
human HDAC11 [1] = biological target: T1, human HDAC11 (Homo sapiens, UniProt Q96DB2); test: Discontinuous fluorescence-based; assay type: biochemical
T1 sequence (Q96DB2 1-347): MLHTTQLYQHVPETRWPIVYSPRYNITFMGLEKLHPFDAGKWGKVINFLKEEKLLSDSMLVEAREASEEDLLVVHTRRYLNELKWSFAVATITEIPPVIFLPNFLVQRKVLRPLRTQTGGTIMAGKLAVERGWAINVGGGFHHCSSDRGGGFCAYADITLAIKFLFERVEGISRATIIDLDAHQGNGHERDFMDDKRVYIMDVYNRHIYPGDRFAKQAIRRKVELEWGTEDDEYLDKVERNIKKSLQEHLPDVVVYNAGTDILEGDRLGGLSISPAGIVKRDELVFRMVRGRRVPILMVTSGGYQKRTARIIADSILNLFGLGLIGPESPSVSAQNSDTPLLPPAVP

human HDAC11 [2] = biological target: T1, human HDAC11; test: Continuous fluorescence HDAC11 activity assay with peptidic substrate 1; assay type: biochemical

IC50 (human HDAC11 [1]) [µM]	IC50 (human HDAC11 [2]) [µM]	SMILES
4.81 ± 0.04		C/C=C1\NC(=O)[C@H]2CSSCC/C=C/[C@H](CC(=O)N[C@H](C(C)C)C(=O)N2)OC(=O)[C@H](C(C)C)NC1=O [romidepsin]
> 40	> 40	CCCC(CCC)C(=O)O [valproate]
> 40	> 40	Nc1ccccc1NC(=O)c1ccc(CNc2nccc(-c3cccnc3)n2)cc1 [mocetinostat, N-(2-aminophenyl)-4-(4-pyridin-3-ylpyrimidin-2-ylamino)methylbenzamide]
